This experiment relates to Demodex. In words: Acaricidal experiment: in vitro culture of Demodex with compound solutions, time to death of mites. The conditions noted are these: 50 μl, 20° C., 96% humidity. On the procedure:
In this study, Demodex was collected from patients diagnosed with ocular Demodex infection. Those meeting the inclusion criteria would be enrolled after an informed conversation and signing an informed consent form.
Demodex detection was performed according to the conventional eyelash microscopic examination method. 3 eyelashes were extracted from each eyelid, and a total of 12 eyelashes were extracted. The extracted eyelashes were immediately placed on a glass slide, and one piece of each three eyelashes was placed under an ordinary light microscope for observation. Demodex at all stages were counted and classified according to morphology (specific criteria were: Demodex brevis at a head-to-body ratio of 1:1 and Demodex folliculorum at a head-to-body ratio of 1:3 to 1:4). Only adults that were fully exposed to the field of view were taken as subjects (larvae and eggs were not considered as subjects since they were more fragile in early life).
Based on the above detection of Demodex, 50 μl of different solutions were added to each slide, and the survival of the worms was observed every 1 hour. The death was judged by observing whether the worms were active (body, limbs, or the like) under a microscope. Two skilled Demodex-related experimenters observed and judged separately during the experiment. If the judgment results were different, the third skilled experimenter was asked to make an independent judgment. The culture in vitro was performed in a climate chamber at 20° C. and 96% humidity. Slides were transported in a humid chamber under observation and the solution was added appropriately to ensure high humidity before vacuoles appeared on solution evaporation.

Results on 28 molecules are retold here after patent publication US20240269066A1, “USE OF CYP450 INHIBITOR IN INHIBITING OR KILLING MITES AND TREATING XEROPHTHALMIA” (PRECVISION BIOTECHNOLOGIES LTD., priority 2021, published 2024).

Where a name gives a salt, the structure may show the parent alone. Bounds are passed on as bounds.

For the molecule `C[C@@H]1CC[C@H]2C(C)(C)[C@H]3C[C@@]12CC[C@@]3(C)O` [Cedrol], the “Average survival time of mites” value (compound 10 mg/mL in 0.9% NaCl) is listed as below 20.04 ± 1.84 h.

Turning to `CCc1ccc(C)c2ccc(C)c-2c1` [Chamazulene], the “Average survival time of mites” value (compound 10 mg/mL in 0.9% NaCl) is recorded as 11.49 ± 3.93 h.

Turning to `CN/C(=N/CCSCc1nc[nH]c1C)NC#N` [Cimetidine], for the setting “compound 10 mg/mL in 0.9% NaCl”, the “Average survival time of mites” value amounted to 53 h.

`COc1cc(N)c(Cl)cc1C(=O)NC1CCN(CCCOc2ccc(F)cc2)CC1OC` (stereo not drawn) [Cisapride]: the “Average survival time of mites” value (compound 10 mg/mL in 0.9% NaCl) was found to be 72 h.

`COC(=O)[C@H](c1ccccc1Cl)N1CCc2sccc2C1` [Clopidogrel Bisulfate]: the “Average survival time of mites” value (compound 10 mg/mL in 0.9% NaCl) came out at 23 h.

As for `Clc1ccccc1C(c1ccccc1)(c1ccccc1)n1ccnc1` [Clotrimazole], the “Average survival time of mites” value was around 33.01 h (compound 0.3 mg/mL in 0.9% NaCl) and around 23.63 h (compound 3 mg/mL in 0.9% NaCl).

`COc1cc(/C=C/C(=O)CC(=O)/C=C/c2ccc(O)c(OC)c2)ccc1O` [Curcumin]: the “Average survival time of mites” value (compound 10 mg/mL in 0.9% NaCl) is on record as 45 h.

Regarding `CCOC(=O)C1=C(C)NC(C)=C(C(=O)OC)C1c1cccc(Cl)c1Cl` (stereo not drawn) [Felodipine], for the setting “compound 10 mg/mL in 0.9% NaCl”, the “Average survival time of mites” value amounted to 71 h.

For `CCC(C)n1ncn(-c2ccc(N3CCN(c4ccc(OCC5COC(Cn6cncn6)(c6ccc(Cl)cc6Cl)O5)cc4)CC3)cc2)c1=O` (stereo not drawn) [Itraconazole], the “Average survival time of mites” value (compound 10 mg/mL in 0.9% NaCl) came out at 96 h.

With `CC(=O)N1CCN(c2ccc(OCC3COC(Cn4ccnc4)(c4ccc(Cl)cc4Cl)O3)cc2)CC1` (stereo not drawn) [Ketoconazole], the “Average survival time of mites” value (compound 10 mg/mL in 0.9% NaCl) worked out at 97 h.

Take `N#Cc1ccc(C(c2ccc(C#N)cc2)n2cncn2)cc1` [Letrozole]: the “Average survival time of mites” value (compound 10 mg/mL in 0.9% NaCl) was found to be 72 h.

On to `CC12CC3CC(C)(C1)CC(N)(C3)C2` [Memantine HCl], for which, under “compound 10 mg/mL in 0.9% NaCl”, the “Average survival time of mites” value worked out at 17 h.

For `COc1c2occc2cc2ccc(=O)oc12` [Methoxsalen], the “Average survival time of mites” value (compound 10 mg/mL in 0.9% NaCl) was 18 h.

`Cc1ncc([N+](=O)[O-])n1CCO` [Metronidazole]: the “Average survival time of mites” value (compound 10 mg/mL in 0.9% NaCl) is reported as 67 h.

As to `CO[C@@H]1[C@H](N(C)C(=O)c2ccccc2)C[C@H]2O[C@]1(C)n1c3ccccc3c3c4c(c5c6ccccc6n2c5c31)C(=O)NC4` [Midostaurin], the “Average survival time of mites” value (compound 10 mg/mL in 0.9% NaCl) was determined as 42 h.

On to `CC(C)(O)c1ccccc1CC[C@@H](SCC1(CC(=O)O)CC1)c1cccc(/C=C/c2ccc3ccc(Cl)cc3n2)c1` [Montelukast Sodium], for which the “Average survival time of mites” value (compound 10 mg/mL in 0.9% NaCl) was 5 h.

Regarding `Cc1ccccc1C(OCCN(C)C)c1ccccc1` (stereo not drawn) [Orphenadrine Citrate], the “Average survival time of mites” value is on record as around 7.09 ± 1.44 h (compound 1 mg/mL in 0.9% NaCl) and 4.35 ± 2.05 h (compound 10 mg/mL in 0.9% NaCl).

With `Fc1ccc([C@@H]2CCNC[C@H]2COc2ccc3c(c2)OCO3)cc1` [Paroxetine], the “Average survival time of mites” value (compound 1 mg/mL in 0.9% NaCl) was found to be 2.44 ± 2.04 h.

Take `Cc1cc(O)c(C(=O)CCC(C)C)c(=O)o1` [Pogostone]: the “Average survival time of mites” value (compound 10 mg/mL in 0.9% NaCl) turned out to be 1.90 ± 1.06 h.

On to `O=c1c(O)c(-c2ccc(O)c(O)c2)oc2cc(O)cc(O)c12` [Quercetin], for which, where the note is “compound 10 mg/mL in 0.9% NaCl”, the “Average survival time of mites” value was 4 h.

In the case of `C=C[C@H]1C[N@@]2CC[C@H]1C[C@@H]2[C@@H](O)c1ccnc2ccc(OC)cc12` [Quinidine sulfate], the “Average survival time of mites” value is 8.33 ± 4.02 h (compound 1 mg/mL in 0.9% NaCl), 5.35 ± 2.09 h (compound 5 mg/mL in 0.9% NaCl) and 5 h (compound 10 mg/mL in 0.9% NaCl).

As to `CN[C@H]1CC[C@@H](c2ccc(Cl)c(Cl)c2)c2ccccc21` [Sertraline HCl], the “Average survival time of mites” value reads like this: (compound 1 mg/mL in 0.9% NaCl) 9.07 ± 6.72 h; (compound 10 mg/mL in 0.9% NaCl) 2.50 ± 1.37 h.

In the case of `Nc1ccc(S(=O)(=O)Nc2ccnn2-c2ccccc2)cc1` [Sulfaphenazole], for the setting “compound 10 mg/mL in 0.9% NaCl”, the “Average survival time of mites” value came to 70 h.

Take `S=P(N1CC1)(N1CC1)N1CC1` [Thiotepa]: the “Average survival time of mites” value (compound 10 mg/mL in 0.9% NaCl) is reported as 22 h.

Regarding `N[C@@H]1C[C@H]1c1ccccc1` [Tranylcypromine HCl], the “Average survival time of mites” value is 7.44 ± 6.07 h (compound 1 mg/mL in 0.9% NaCl), 5.66 ± 0.91 h (compound 3 mg/mL in 0.9% NaCl), 2.89 ± 1.08 h (compound 10 mg/mL in 0.9% NaCl) and 2.24 ± 1.32 h (compound 30 mg/mL in 0.9% NaCl).

Regarding `C[C@@H](c1ncncc1F)[C@](O)(Cn1cncn1)c1ccc(F)cc1F` [Voriconazole], the “Average survival time of mites” value (compound 10 mg/mL in 0.9% NaCl) is 72 h.

Turning to `C=C1CC[C@@]23C[C@@H]1C(C)(C)[C@@H]2CC[C@H]3C` [β-cedrene], the “Average survival time of mites” value (compound 10 mg/mL in 0.9% NaCl) is 42.57 ± 8.89 h.

In the case of alpha-bisabolol, for the setting “compound 10 mg/mL in 0.9% NaCl”, the “Average survival time of mites” value is given as 7.60 ± 2.60 h.
